In publication doi:10.1101/2023.06.30.547126, “FruitFire: a luciferase based on a fruit fly metabolic enzyme” (bioRxiv, 2023):

Experiments:
Fluc = molecular target: T1, Fluc (Photinus pyralis, UniProt P08659); assay: live-cell bioluminescence imaging (IVIS-100); assay type: cell-based; settings: transfected CHO cells, 0.122-250 μM substrate
T1 construct: luc2 gene in pcDNA3.1, transfected CHO cells

CG6178 = molecular target: T2, CG6178 (Drosophila melanogaster, UniProt Q9VCC6); assay: X-ray crystal structure, […] Å; assay type: binding; settings: active site; co-purified fatty acid adenylated with 10 mM ATP, ligand modelled as best fit to density; pH 7.5, 25 °C
T2 construct: gene Dmel\CG6178; full length, 544 residues; GST fusion from pGEX-6P-1 in E. coli BL21(DE3), GST cleaved with PreScission protease
T2 sequence (Q9VCC6 1-544): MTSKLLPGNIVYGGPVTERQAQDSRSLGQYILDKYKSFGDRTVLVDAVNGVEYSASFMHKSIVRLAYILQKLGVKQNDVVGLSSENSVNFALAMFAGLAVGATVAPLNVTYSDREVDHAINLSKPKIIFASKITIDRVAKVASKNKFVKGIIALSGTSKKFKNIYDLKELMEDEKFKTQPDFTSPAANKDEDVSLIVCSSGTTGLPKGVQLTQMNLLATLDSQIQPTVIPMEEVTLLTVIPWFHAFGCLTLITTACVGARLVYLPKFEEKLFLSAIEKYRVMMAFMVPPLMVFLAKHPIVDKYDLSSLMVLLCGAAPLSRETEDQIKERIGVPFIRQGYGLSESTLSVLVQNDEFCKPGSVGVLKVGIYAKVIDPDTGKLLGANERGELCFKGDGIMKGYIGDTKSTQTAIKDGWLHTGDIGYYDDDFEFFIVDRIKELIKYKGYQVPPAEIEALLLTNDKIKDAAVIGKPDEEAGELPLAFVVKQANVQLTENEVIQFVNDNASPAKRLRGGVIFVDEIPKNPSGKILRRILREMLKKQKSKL

T1 sequence (P08659 whole entry): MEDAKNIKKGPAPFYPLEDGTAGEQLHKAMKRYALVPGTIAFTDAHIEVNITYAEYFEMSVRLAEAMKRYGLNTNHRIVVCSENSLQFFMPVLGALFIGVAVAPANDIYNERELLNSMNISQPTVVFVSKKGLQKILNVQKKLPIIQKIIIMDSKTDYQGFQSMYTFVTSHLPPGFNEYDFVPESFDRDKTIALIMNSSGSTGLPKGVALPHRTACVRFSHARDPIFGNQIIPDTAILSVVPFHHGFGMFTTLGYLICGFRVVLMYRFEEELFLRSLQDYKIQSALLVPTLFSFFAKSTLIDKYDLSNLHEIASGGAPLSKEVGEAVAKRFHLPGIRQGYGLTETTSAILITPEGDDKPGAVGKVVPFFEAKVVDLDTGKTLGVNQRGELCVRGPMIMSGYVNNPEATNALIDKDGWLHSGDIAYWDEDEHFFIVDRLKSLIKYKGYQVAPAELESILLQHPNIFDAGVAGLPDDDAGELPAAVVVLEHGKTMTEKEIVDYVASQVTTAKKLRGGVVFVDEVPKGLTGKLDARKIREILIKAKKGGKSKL

SMILES	live-cell bioluminescence imaging (IVIS-100) (Fluc)	X-ray crystal structure, 2.5 Å (CG6178)
CN1CCc2cc3nc(C4=N[C@@H](C(=O)O)CS4)sc3cc21 [CycLuc2]	relative performance of all three enzymes with CycLuc2	–
CCCCCCCC(=O)OP(=O)(O)OC[C@H]1O[C@@H](n2cnc3c(N)ncnc32)[C@H](O)[C@@H]1O [octanoyl-AMP]	–	octanoyl-AMP (C8) and an ethylene glycol in the active site is most consistent with the data
